What is called EC50 is the midpoint of the concentration-response curve.

The values below come from patent US11365199B2, “Pyrazole compounds as modulators of FSHR and uses thereof” (Merck Patent GmbH, priority 2013, dated 2022).

The target of this test is T1, FSHR (Homo sapiens, UniProt P23945).
T1 construct: expressed in transfected cells; host or cells: CHO (Cho-FSHR-LUC-1-1-43)
T1 sequence (P23945 18-695): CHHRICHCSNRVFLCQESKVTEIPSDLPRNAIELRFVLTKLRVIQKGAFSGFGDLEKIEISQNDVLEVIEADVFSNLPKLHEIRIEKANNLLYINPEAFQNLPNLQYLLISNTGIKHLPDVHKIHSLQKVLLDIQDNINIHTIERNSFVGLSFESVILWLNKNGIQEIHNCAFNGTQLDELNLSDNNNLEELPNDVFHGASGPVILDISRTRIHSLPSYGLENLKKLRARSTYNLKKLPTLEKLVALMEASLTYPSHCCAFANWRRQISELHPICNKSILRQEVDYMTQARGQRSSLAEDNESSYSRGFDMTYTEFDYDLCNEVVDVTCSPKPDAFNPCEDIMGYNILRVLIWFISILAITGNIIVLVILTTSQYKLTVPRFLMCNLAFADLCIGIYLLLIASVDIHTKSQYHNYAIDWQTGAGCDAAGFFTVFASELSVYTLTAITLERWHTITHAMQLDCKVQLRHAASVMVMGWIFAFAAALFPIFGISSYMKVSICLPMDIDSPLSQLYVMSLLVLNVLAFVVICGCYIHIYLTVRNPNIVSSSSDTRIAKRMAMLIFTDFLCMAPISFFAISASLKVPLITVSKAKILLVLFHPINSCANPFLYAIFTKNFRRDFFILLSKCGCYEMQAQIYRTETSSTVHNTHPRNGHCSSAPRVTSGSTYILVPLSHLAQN
In words: EC50 of cyclic AMP production in CHO FSHR cells + EC20 FSH (Assay A). The class given is cell-based. Particulars: CHO FSHR cells + EC20 FSH, cAMP HTRF; read-out: Assay A: EC50 of cyclic AMP production. As to the method: EC50 of Cyclic AMP Production in CHO FSHR Cells+EC20 FSH (Assay A)
2500 Cho-FSHR-LUC-1-1-43 cells were plated per well in 5 μl of phenol red free DMEM/F12+1% FBS. Cells were plated in 384 well, solid white low volume plates (Greiner 784075) by Multidrop. Cells were assayed by adding 100 μl of 2×EC20 FSH/IBMX in DMEM/F12+0.1% BSA) by Multidrop to 2 μl of test compound stamped in 384 well plates (compounds are diluted 1:50). The final FSH concentration was […], and the final IBMX concentration was 200 μM. The compound plate map was as follows: Column 1: 2 μl of DMSO; Column 2: 2 μl of DMSO; Columns 3-12 and 13-24: 2 μl of test compound, diluted 1:4 in 100% DMSO, or 2 μl of FSH, diluted 1:4 in DMEM/F12+0.1% BSA. The starting concentration for FSH was 50 nM (final concentration was 0.5 nM). Furthermore, Column 23 contained 2 μl of EC100 FSH reference (100×) (diluted in DMEM/F12+0.1% BSA) at a final concentration of 0.5 nM, and Column 24 contained 2 μl of 1 mM AS707664/2 reference compound 2. 5 μl of compound+EC20 FSH mixture were transferred to cell plates (1:2 dilution into 5 μl of cell media) The plates were incubated at 37° C. for 1 h. 10 μl of mixed HTRF (CisBio #62AM4PEC) reagents were added per well and incubated at room temperature for 1 h. The plates were read on Envision using the cAMP HTRF—low volume 384 well protocol. The readout was the calculated fluorescence ratio (665 nm/620 nm). Values given in percent (%) indicate the percental effect (response) at a certain concentration of agonist relative to the maximum response of the FSH standard.
Background: Time-resolved FRET reads energy transfer from a long-lived donor to a nearby acceptor.

Regarding `[2H]C([2H])([2H])N(C(=O)c1nn(-c2ccsc2)c2c1COc1cc(OC)c(-c3ccnn3C)cc1-2)C1(C)COC1` [Compound 118], the EC50 is below 0.1 µM.
Turning to `COc1cc2c(cc1-c1ccn(C)c1)-c1c(c(C(=O)N3CCN(C(C)=O)CC3)nn1-c1ccsc1)CO2` [Compound 155, 1-{4-[7-Methoxy-8-(1-methyl-1H-pyrrol-3-yl)-1-thiophen-3-yl-1,4-dihydro-chromeno[4,3-c]pyrazole-3-carbonyl]-piperazin-1-yl}-ethanone], the EC50 was above 5 µM.
`COc1cc2c(cc1C=C(C)C)-c1c(c(C(=O)N3CCCC(C(N)=O)CC3)nn1-c1ccsc1)CO2` (stereo not drawn) [Compound 43, 1-[7-methoxy-8-(2-methyl-propenyl)-1-thiophen-3-yl-1,4-dihydro-chromeno[4,3-c]pyrazole-3-carbonyl]-azepane-4-carboxylic Acid Amide]: the concentration for a half-maximal effect (EC50) is below 0.1 µM.
The value for `COc1cc2c(cc1C=C(C)C)-c1c(c(C(=O)N3CCC(O)C3)nn1-c1ccsc1)CO2` (stereo not drawn) [Compound 47, (3-Hydroxy-pyrrolidin-1-yl)-[7-methoxy-8-(2-methyl-propenyl)-1-thiophen-3-yl-1,4-dihydro-chromeno[4,3-c]pyrazol-3-yl]-methanone] was 1 to 5 µM; that for `COc1cc2c(cc1-c1cnn(C)c1C)-c1c(c(C(=O)N3CCOCC3(C)C)nn1-c1ccsc1)CO2` [Compound 124, (3,3-Dimethyl-morpholin-4-yl)-[8-(1,5-dimethyl-1H-pyrazol-4-yl)-7-methoxy-1-thiophen-3-yl-1,4-dihydro-chromeno[4,3-c]pyrazol-3-yl]-methanone] was below 0.1 µM; that for `COc1cc2c(cc1-c1ccnn1C)-c1c(c(C(=O)N(C)C(C)(C)C)nn1-c1ccsc1)CO2` [Compound 64, 7-Methoxy-8-(2-methyl-2H-pyrazol-3-yl)-1-thiophen-3-yl-1,4-dihydro-chromeno[4,3-c]pyrazole-3-carboxylic acid tert-butyl-methyl-amide] was below 0.1 µM.
Turning to `COc1cc2c(cc1C=C(C)C)-c1c(c(C(=O)N3CCC(C(=O)O)CC3)nn1-c1ccsc1)CO2` [Compound 16, 1-{7-Methoxy-8-(2-methyl-propenyl)-1-thiophen-3-yl-1,4-dihydro-chromeno[4,3-c]pyrazole-3-carbonyl]-piperidine-4-carboxylic acid], the EC50 is above 5 µM.
The value for `COc1cc2c(cc1-c1ccn(C)c1)-c1c(c(C(=O)NC3CC(O)C3)nn1-c1ccsc1)CO2` (stereo not drawn) [Compound 136, 7-Methoxy-8-(1-methyl-1H-pyrrol-3-yl)-1-thiophen-3-yl-1,4-dihydro-chromeno[4,3-c]pyrazole-3-carboxylic acid (3-hydroxy-cyclobutyl)-amide] was above 5 µM; that for `COc1cc2c(cc1-c1ccn(C)n1)-c1c(c(C(=O)N(C)CC3(C)COC3)nn1-c1ccsc1)CO2` [Compound 102, 7-Methoxy-8-(1-methyl-1H-pyrazol-3-yl)-1-thiophen-3-yl-1,4-dihydro-chromeno[4,3-c]pyrazole-3-carboxylic acid methyl-(3-methyl-oxetan-3-ylmethyl)-amide] was 0.1 to 1 µM.
The value for `COc1cc2c(cc1-c1ccc(F)s1)-c1c(c(C(=O)N(C)C(C)(C)C)nn1-c1ccsc1)CO2` [Compound 54, 8-(5-Fluoro-thiophen-2-yl)-7-methoxy-1-thiophen-3-yl-1,4-dihydro-chromeno[4,3-c]pyrazole-3-carboxylic acid tert-butyl-methyl-amide] was 0.1 to 1 µM.
Take `COc1cc2c(cc1-c1ccn(C)n1)-c1c(c(C(=O)N3CCCC34COC4)nn1-c1ccsc1)CO2` [Compound 174, [7-Methoxy-8-(1-methyl-1H-pyrazol-3-yl)-1-thiophen-3-yl-1,4-dihydro-chromeno[4,3-c]pyrazol-3-yl]-(2-oxa-5-aza-spiro[3.4]oct-5-yl)-methanone]: the EC50 lay in the range of 0.1 to 1 µM.
The value for `[2H]C([2H])([2H])N(CCCN(C(=O)C1CCC1)C([2H])([2H])[2H])C(=O)c1nn(-c2ccsc2)c2c1COc1cc(OC)c(C=C(C)C)cc1-2` [Compound 69] was 0.1 to 1 µM; that for `COc1cc2c(cc1S(=O)(=O)C(C)C)-c1c(c(C(=O)NC3(CO)COC3)nn1-c1ccsc1)CO2` [Compound 187, 7-Methoxy-8-(propane-2-sulfonyl)-1-thiophen-3-yl-1,4-dihydro-chromeno[4,3-c]pyrazole-3-carboxylic Acid (3-hydroxymethyl-oxetan-3-yl)-amide] was above 5 µM; that for `COc1cc2c(cc1C#N)-c1c(c(C(=O)N3CCOCC3(C)C)nn1-c1ccsc1)CO2` [Compound 86, 3-(3,3-Dimethyl-morpholine-4-carbonyl)-7-methoxy-1-thiophen-3-yl-1,4-dihydro-chromeno[4,3-c]pyrazole-8-carbonitrile] was below 0.1 µM.
The value for `[2H]C([2H])([2H])N(C(=O)c1nn(-c2ccsc2)c2c1COc1cc(OC)c(-c3cn(C([2H])([2H])[2H])nc3C)cc1-2)C1CCOC1` (stereo not drawn) [Compound 143] was 0.1 to 1 µM; that for `COc1cc2c(cc1-c1cn[nH]c1)-c1c(c(C(=O)N3CCOCC3(C)C)nn1-c1ccsc1)CO2` [Compound 80, (3,3-Dimethyl-morpholin-4-yl)-[7-methoxy-8-(1H-pyrazol-4-yl)-1-thiophen-3-yl-1,4-dihydro-chromeno[4,3-c]pyrazol-3-yl]-methanone] was below 0.1 µM.
The value for `COc1cc2c(cc1C=C(C)C)-c1c(c(C(=O)N(C)C(C)(C)CO)nn1-c1ccsc1)CO2` [Compound 40, 7-Methoxy-8-(2-methyl-propenyl)-1-thiophen-3-yl-1,4-dihydro-chromeno[4,3-c]pyrazole-3-carboxylic acid (2-hydroxy-1,1-dimethyl-ethyl)-methyl-amide] was below 0.1 µM; that for `COc1cc2c(cc1-c1ccn(C)n1)-c1c(c(C(=O)N3CCN(C(C)=O)CC3(C)C)nn1-c1ccsc1)CO2` [Compound 216] was below 0.1 µM.
As to `COc1cc2c(cc1-c1ccn(C)n1)-c1c(c(C(=O)NC3(C)COC3)nn1-c1ccsc1)CO2` [Compound 100, 7-Methoxy-8-(1-methyl-1H-pyrazol-3-yl)-1-thiophen-3-yl-1,4-dihydro-chromeno[4,3-c]pyrazole-3-carboxylic acid (3-methyl-oxetan-3-yl)-amide], the EC50 was 0.1 to 1 µM.
Take `COc1cc2c(cc1-c1ccn(C)n1)-c1c(c(C(=O)NC3CC(O)C3)nn1-c1ccsc1)CO2` (stereo not drawn) [Compound 137, 7-Methoxy-8-(1-methyl-1H-pyrazol-3-yl)-1-thiophen-3-yl-1,4-dihydro-chromeno[4,3-c]pyrazole-3-carboxylic acid (3-hydroxy-cyclobutyl)-amide]: the EC50 was 1 to 5 µM.
Turning to `CNC(=O)C1CCCN(C(=O)c2nn(-c3ccsc3)c3c2COc2cc(OC)c(C=C(C)C)cc2-3)CC1` (stereo not drawn) [Compound 42, 1-[7-Methoxy-8-(2-methyl-propenyl)-1-thiophen-3-yl-1,4-dihydro-chromeno[4,3-c]pyrazole-3-carbonyl]-azepane-4-carboxylic Acid Methylamide], the EC50 lay within 0.1 to 1 µM.
The value for `COc1cc2c(cc1S(=O)(=O)C(C)C)-c1c(c(C(=O)NC3(C)COC3)nn1-c1ccsc1)CO2` [Compound 188, 7-Methoxy-8-(propane-2-sulfonyl)-1-thiophen-3-yl-1,4-dihydro-chromeno[4,3-c]pyrazole-3-carboxylic Acid (3-methyl-oxetan-3-yl)-amide] was above 5 µM; that for `COc1cc2c(cc1-c1sccc1C)-c1c(c(C(=O)N(C)C(C)(C)C)nn1-c1ccsc1)CO2` [Compound 88, 7-Methoxy-8-(3-methyl-thiophen-2-yl)-1-thiophen-3-yl-1,4-dihydro-chromeno[4,3-c]pyrazole-3-carboxylic acid tert-butyl-methyl-amide] was below 0.1 µM.
The value for `[2H]C([2H])([2H])N(C(=O)c1nn(-c2ccsc2)c2c1COc1cc(OC)c(-c3ccn(C)n3)cc1-2)C1CCOC1` (stereo not drawn) [Compound 140] was 1 to 5 µM.
